Tests used:
FLK-1 receptor = target: T1, FLK-1 receptor (Mus musculus, UniProt P35918); experiment: FLK-1 ELISA (kinase activity of the FLK-1 receptor in FLK-1/NIH3T3 cells, VEGF stimulated); format: cell-based; design: concentration or dose not given beside the values
T1 construct: expressed in transfected cells; host or cells: NIH3T3 C7#3
In short: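 An ELISA using affinity-purified rabbit anti-FLK-1 antiserum on anti-rabbit IgG-coated plates measured VEGF-stimulated FLK-1 kinase activity. NIH3T3 C7#3 cells carrying FLK-1 were serum-starved (0.1% FBS) overnight, then exposed to compound (final 1:200 dilution, 0.5% DMSO) for two hours at 37 °C.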

MET = MET biochemical kinase assay; design: species or system human; concentration or dose not given beside the values
In short: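 Immunocaptured MET autophosphorylation, read colorimetrically (TMB) via HRP anti-phosphotyrosine antibody. Kinase reaction initiated with buffer containing ATP and divalent metals after compound addition to plate-bound receptor from lysates.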

T1 sequence (P35918 20-1345): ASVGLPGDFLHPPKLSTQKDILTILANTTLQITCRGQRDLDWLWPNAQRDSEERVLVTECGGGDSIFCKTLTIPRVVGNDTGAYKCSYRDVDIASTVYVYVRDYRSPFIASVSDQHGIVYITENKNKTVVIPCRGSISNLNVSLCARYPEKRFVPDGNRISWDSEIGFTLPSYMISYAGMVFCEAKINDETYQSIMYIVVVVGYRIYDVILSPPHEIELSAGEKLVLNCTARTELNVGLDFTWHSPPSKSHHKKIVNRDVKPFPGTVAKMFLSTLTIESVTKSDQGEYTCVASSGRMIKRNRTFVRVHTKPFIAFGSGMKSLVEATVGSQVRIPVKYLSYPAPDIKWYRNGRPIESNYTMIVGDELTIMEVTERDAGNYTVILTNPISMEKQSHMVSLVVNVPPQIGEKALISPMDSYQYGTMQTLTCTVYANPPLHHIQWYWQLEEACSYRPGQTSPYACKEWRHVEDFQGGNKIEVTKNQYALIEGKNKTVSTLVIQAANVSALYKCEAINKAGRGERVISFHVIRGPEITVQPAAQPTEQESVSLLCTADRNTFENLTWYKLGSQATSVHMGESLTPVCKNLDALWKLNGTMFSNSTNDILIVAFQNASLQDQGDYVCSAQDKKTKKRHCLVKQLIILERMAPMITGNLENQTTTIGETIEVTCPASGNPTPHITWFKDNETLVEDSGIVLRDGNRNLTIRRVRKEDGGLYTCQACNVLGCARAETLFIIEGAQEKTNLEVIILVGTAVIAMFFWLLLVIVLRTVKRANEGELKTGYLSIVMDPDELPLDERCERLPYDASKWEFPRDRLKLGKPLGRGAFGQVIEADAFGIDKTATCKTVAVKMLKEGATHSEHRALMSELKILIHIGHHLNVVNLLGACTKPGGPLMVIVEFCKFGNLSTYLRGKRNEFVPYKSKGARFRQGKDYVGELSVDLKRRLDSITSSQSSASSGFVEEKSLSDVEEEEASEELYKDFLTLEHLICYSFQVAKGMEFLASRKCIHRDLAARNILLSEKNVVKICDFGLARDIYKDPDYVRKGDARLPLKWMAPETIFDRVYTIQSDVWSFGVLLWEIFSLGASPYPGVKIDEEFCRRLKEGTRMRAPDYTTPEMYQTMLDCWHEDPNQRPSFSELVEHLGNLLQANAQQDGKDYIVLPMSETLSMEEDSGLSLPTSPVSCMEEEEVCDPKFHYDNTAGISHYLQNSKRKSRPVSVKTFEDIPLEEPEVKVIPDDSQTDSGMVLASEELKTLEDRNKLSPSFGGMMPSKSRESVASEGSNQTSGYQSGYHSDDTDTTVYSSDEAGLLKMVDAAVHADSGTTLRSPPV

Row | Compound | Fik Kinase %Inhibition (FLK-1 receptor) | Met Kinase % Inhibition (MET)
1 | CCc1ccc(C=C2C(=O)Nc3ccc(S(=O)(=O)Nc4ccc(C(F)(F)F)cc4)cc32)o1 [10724/E10] | 7.3% | 84.0%
2 | CNS(=O)(=O)c1ccc2c(c1)C(=Cc1sc3scc(C)c3c1C)C(=O)N2 [10724/D11] | 14.9% | 20.3%
3 | Cc1c(Br)ccc2c1C(=Cc1cc3c4c(c1O)CCCN4CCC3)C(=O)N2 [10724/C05] | -18.6% | 67.7%
4 | CC(C)(C)c1cc(C=C2C(=O)Nc3ccc(CCCl)cc32)c(O)c(C(C)(C)C)c1 [10723/G11] | -4.1% | 39.4%
5 | CN(C)c1ccc(C=C2C(=O)Nc3ccc(CCCl)cc32)c2ccccc12 [10724/G02] | 15.1% | 44.9%
6 | COc1ccc(Br)c(C=C2C(=O)Nc3c(Br)cc(Br)cc32)c1O [10725/A03] | 3.6% | 68.0%
7 | O=C1Nc2ccc(CCCl)cc2C1=Cc1ccc([N+](=O)[O-])c(O)c1 [10724/G04] | -7.9% | 71.0%
8 | O=C1Nc2c(Br)cc(Br)cc2C1=Cc1cc2c3c(c1O)CCCN3CCC2 [10724/A05] | -15.2% | 68.4%
9 | O=C1Nc2c(Br)cc(Br)cc2C1=Cc1ccc([N+](=O)[O-])c(O)c1 [10724/A04] | -15.9% | 62.6%
10 | CCc1ccc(C=C2C(=O)Nc3ccc(CCCl)cc32)o1 [10724/G10] | 7.0% | 62.8%
11 | CN(C)c1ccc(C=C2C(=O)Nc3c(Br)cc(Br)cc32)c2ccccc12 [10724/A02] | 1.8% | 61.7%
12 | O=C1Nc2ccc(CCCl)cc2C1=Cc1ccc(O)c([N+](=O)[O-])c1 [10724/G03] | -8.4% | 36.7%
13 | CN(C)c1ccc(C=C2C(=O)Nc3ccc(S(=O)(=O)Nc4ccc(C(F)(F)F)cc4)cc32)c2ccccc12 [10724/E02] | 17.7% | 55.4%
14 | O=C1Nc2c(Br)cc(Br)cc2C1=Cc1ccc(N2CCOCC2)cc1 [10725/A08] | -2.9% | 45.3%
15 | O=C1Nc2ccc(I)cc2C1=Cc1ccc(N2CCOCC2)cc1 [10725/B08] | -24.1% | 66.7%
16 | O=C1Nc2ccc(CCCl)cc2C1=Cc1cc2c3c(c1O)CCCN3CCC2 [10724/G05] | -0.1% | 61.0%
17 | CCc1ccc(C=C2C(=O)Nc3c(Br)cc(Br)cc32)o1 [10724/A10] | 1.6% | 83.8%
18 | Cc1cc(C=C2C(=O)Nc3c(Br)cc(Br)cc32)[nH]n1 [10725/A05] | -13.9% | 47.5%
19 | O=C1Nc2ccc(I)cc2C1=Cc1cc2ccccc2o1 [10724/B07] | -1.8% | 57.9%
20 | COC(=O)Cc1c(Cl)[nH]c(C=C2C(=O)Nc3c(Br)cc(Br)c(C)c32)c1C(=O)OC [10725/A09] | -13.9% | 44.3%
21 | O=C1Nc2c(Br)cc(Br)cc2C1=Cc1cccn1-c1ccc(Cl)cc1 [10724/A09] | -5.2% | 37.5%
22 | O=C1Nc2ccc(S(=O)(=O)Nc3ccc(C(F)(F)F)cc3)cc2C1=Cc1cc2ccccc2o1 [10724/E07] | -3.6% | 46.8%
23 | COc1cccc(O)c1C=C1C(=O)Nc2ccc(S(=O)(=O)Nc3ccc(C(F)(F)F)cc3)cc21 [10717/E10] | 4.7% | 35.9%
24 | COc1cc(C)cc(O)c1C=C1C(=O)Nc2c(Br)cc(Br)cc21 [10725/A06] | -7.3% | 71.7%
25 | CC(C)c1cc(C=C2C(=O)Nc3ccc(S(=O)(=O)Nc4ccc(C(F)(F)F)cc4)cc32)cc(C(C)C)c1O [10724/E06] | 8.3% | 25.8%

Row | Compound | Fik Kinase %Inhibition (FLK-1 receptor) | Met Kinase % Inhibition (MET)
26 | O=C1Nc2ccc(CCCl)cc2C1=Cc1cccc(Br)c1 [10723/G10] | . 3.5% | 40.7%
27 | O=C1Nc2ccc(S(=O)(=O)Nc3ccc(C(F)(F)F)cc3)cc2C1=Cc1ccc[nH]1 [10717/E09] | -1.1% | 19.2%
28 | Cc1csc2sc(C=C3C(=O)Nc4ccc(CCCl)cc43)c(C)c12 [10724/G11] | 6.8% | 11.2%
29 | CNS(=O)(=O)c1ccc2c(c1)C(=Cc1cccn1-c1ccc(Cl)cc1)C(=O)N2 [10724/D09] | 0.9% | 16.1%
30 | Cc1c(Br)ccc2c1C(=Cc1ccc(N(C)C)c3ccccc13)C(=O)N2 [10724/C02] | -0.3% | 40.7%
31 | CNS(=O)(=O)c1ccc2c(c1)C(=Cc1cc3ccccc3o1)C(=O)N2 [10724/D07] | -2.6% | 38.1%
32 | CNS(=O)(=O)c1ccc2c(c1)C(=Cc1ccc(N(C)C)c3ccccc13)C(=O)N2 [10724/D02] | 12.4% | 37.5%
33 | Cc1c(Br)cc(Br)c2c1C(=Cc1c[nH]cn1)C(=O)N2 [10725/A11] | -21.9% | 49.1%
34 | O=C1Nc2ccc(S(=O)(=O)Nc3ccc(C(F)(F)F)cc3)cc2C1=Cc1ccc(O)c([N+](=O)[O-])c1 [10724/E03] | 10.6% | 85.8%
35 | Cc1c(Br)ccc2c1C(=Cc1cc(C(C)C)c(O)c(C(C)C)c1)C(=O)N2 [10724/C06] | -1.5% | 15.4%
36 | O=C1Nc2ccc(S(=O)(=O)Nc3ccc(C(F)(F)F)cc3)cc2C1=Cc1cccn1-c1ccc(Cl)cc1 [10724/E09] | 14.3% | 27.0%
37 | CNS(=O)(=O)c1ccc2c(c1)C(=Cc1cc3c4c(c1O)CCCN4CCC3)C(=O)N2 [10724/D05] | -1.6% | 36.1%
38 | CNS(=O)(=O)c1ccc2c(c1)C(=Cc1ccc(O)c([N+](=O)[O-])c1)C(=O)N2 [10724/D03] | 0.1% | 18.2%
39 | O=C1Nc2ccc(S(=O)(=O)N3CCOCC3)cc2C1=Cc1c[nH]c2ccccc12 [10717/F06] | 8.9% | 49.0%
40 | CC(C)c1cc(C=C2C(=O)Nc3c(Br)cc(Br)cc32)cc(C(C)C)c1O [10724/A06] | -3.7% | 46.8%
41 | CC(C)c1cc(C=C2C(=O)Nc3ccc(CCCl)cc32)cc(C(C)C)c1O [10724/G06] | 0.1% | 20.3%
42 | O=C1Nc2ccc(S(=O)(=O)N3CCOCC3)cc2C1=Cc1ccc(F)cc1 [10717/F05] | 3.2% | 21.5%
43 | CCOc1ccccc1C=C1C(=O)Nc2ccc(S(=O)(=O)N3CCOCC3)cc21 [10717/F02] | 2.2% | 30.4%
44 | CCc1ccc(C=C2C(=O)Nc3ccc(S(=O)(=O)NC)cc32)o1 [10724/D10] | 3.7% | 59.6%
45 | Cc1csc2sc(C=C3C(=O)Nc4ccc(I)cc43)c(C)c12 [10724/B11] | 9.0% | 43.0%
46 | Cc1c(Br)ccc2c1C(=Cc1ccc([N+](=O)[O-])c(O)c1)C(=O)N2 [10724/C04] | -18.6% | 84.3%
47 | O=C1Nc2ccc(I)cc2C1=Cc1ccc(O)c([N+](=O)[O-])c1 [10724/B03] | -48.9% | 51.0%
48 | O=C1Nc2ccc(S(=O)(=O)Nc3ccc(C(F)(F)F)cc3)cc2C1=Cc1cc2c3c(c1O)CCCN3CCC2 [10724/E05] | 13.8% | 70.3%
49 | COc1cc(C)cc(O)c1C=C1C(=O)Nc2ccc(I)cc21 [10725/B06] | -0.5% | 53.3%
50 | Cn1cccc1C=C1C(=O)Nc2c(Br)cc(Br)cc21 [10717/A04] | -4.5% | 37.4%

Source: patent publication EP1247803A2, “Indolinone compounds suitable for modulation of protein kinases” (Sugen, Inc., priority 1996, dated 1998)
